The target in assay [1] is T1, E. coli Endo IV (Escherichia coli, UniProt P0A6C1).
T1 construct: made in house
In words: E. coli Endo IV profiling counterscreen.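 Note: selectivity counterscreen of candidate APE1 inhibitors against the bacterial endonuclease Endo IV, run in the same assay format as the primary APE1 high-throughput screen.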 Format: biochemical. As to conditions: read-out: EndoIV IC50.
Text: (§1) In order to screen out nonselective compounds, such as non-specific DNA binders and inhibitors of related enzymes, we used a miniaturized ThO DNA displacement assay and a counterscreen against the bacterial endonuclease E. coli Endo IV, respectively, following the previously published protocols [21].
To probe the selectivity of the candidate APE1 inhibitors, we tested them against E. coli EndoIV [36], employing the same assay as used in the HTS.

Assay [2] concerns the target double-stranded 17-mer DNA fragment. Nature of the assay: ThO (Thiazole Orange) DNA displacement assay.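 Note: miniaturized displacement of the intercalating dye from unlabeled duplex DNA, used to flag nonspecific DNA binders, chiefly intercalators, groove binders may be missed.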 Format: binding. As to conditions: read-out: ThO-DNA binding IC50.
Text: The double-stranded 17-mer DNA fragment used in the ThO DNA binding assay was of the same sequence as the fluorogenic HTS substrate but carried no dye labels.
as §1
To detect screening hits that inhibit APE1 activity through non-specific DNA interactions, we employed a previously established miniaturized ThO dye displacement assay [21]. […] We note that the ThO assay reports primarily on DNA binders acting through intercalation, while potentially missing other types of DNA binders, such as those acting through the minor groove.
Assay [3] has as its target T2, APE1 (Homo sapiens, UniProt P27695).
T2 construct: made in house
In words: Gel-based APE1 incision assay with fluorescence (TAMRA) detection. Format: biochemical.
Experimental: To test the compounds’ inhibitory activity after the primary screen, two assays designed to monitor the cleavage of substrate to product through electrophoretic separation were utilized. The radiotracer incision assay, utilizing a ^32P-labeled substrate, was performed essentially as described [21], [31], [32]. Incision reactions utilizing ^32P-labeled substrate were carried out for 5 min at 37°C. After the addition of an equal volume of stop buffer (0.05% bromophenol blue and xylene cyanol, 20 mM EDTA, 95% formamide), the substrate and product were separated on a standard polyacrylamide denaturing gel and quantified by PhosphorImager analysis [32]. […] APE1 cleavage of the substrate results in a 18-mer TAMRA-labeled fragment which was separated by a non-denaturing polyacrylamide gel electrophoresis and quantitated in a Gel Doc XR imaging system, BioRad (Hercules, CA). The advantage of this assay is that it can be used in a relatively high throughput mode with the inhibitors tested at a range of concentrations (0.17 µM to 125 µM was used here). APE1 (0.15 nM) was added to a reaction mixture of 20 µL containing assay buffer (40 mM HEPES pH 7.5, 50 mM NaCl, 1 mM MgCl2 and 2 mM DTT), and labeled ds DNA substrate (final 75 nM). The mixture was incubated at RT for 15 min, and the reaction was stopped by the addition 20 µL of 2X dye stop solution (10% glycerol, 20 mM EDTA and bromophenol blue). Then 10 µL of the mixture was resolved on 20% polyacrylamide gel in 1X Tris-borate EDTA running buffer at 250 V for 40 min.
To eliminate false positive hits, all 595 confirmed molecules were tested for their ability to inhibit APE1 incision activity using biochemical assays that involve electrophoretic separation of the substrate and cleavage product.

Assay [4] has as its target T2, APE1. Nature of the assay: Fluorogenic kinetic qHTS APE1 incision assay (primary screen and retest of cherrypicked samples).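 Note: purified APE1 cleaving a fluorophore/dark-quencher labelled 17-mer duplex DNA bearing a tetrahydrofuran AP site, fluorescence rise followed kinetically over the first 2 min, inhibition normalized to controls.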 Format: biochemical.
Assay [5] deals with T2, APE1. In words: Fluorescence polarization (FP) displacement assay of APE1 binding to AP-DNA probe.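 Note: TAMRA 5′-labeled duplex DNA with THF abasic site (5 nM) and APE1 (20 nM), Mg2+-free buffer, 15 min at room temperature, inhibition seen as lowered polarization.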 The following applies: read-out: FP IC50.
[6] abbreviates: entries 113-223: fluorophore detection, estimated IC50, read-out: Gel-based electrophoretic separation assay with fluorophore detection, estimated IC50 (column headed Radiotracer Assay (%Activity)).
Setting [7] is: initial quantitative high-throughput screen, read-out: APE1 qHTS IC50.
[8] abbreviates: retest of cherrypicked sample, read-out: APE1 Retest IC50.
Setting [9] is: estimated IC50, fluorophore detection, entries 113-223, read-out: F-PAGE Assay IC50.

Where only a bound is given, the exact number is not on record here.

T2 sequence (P27695 whole entry): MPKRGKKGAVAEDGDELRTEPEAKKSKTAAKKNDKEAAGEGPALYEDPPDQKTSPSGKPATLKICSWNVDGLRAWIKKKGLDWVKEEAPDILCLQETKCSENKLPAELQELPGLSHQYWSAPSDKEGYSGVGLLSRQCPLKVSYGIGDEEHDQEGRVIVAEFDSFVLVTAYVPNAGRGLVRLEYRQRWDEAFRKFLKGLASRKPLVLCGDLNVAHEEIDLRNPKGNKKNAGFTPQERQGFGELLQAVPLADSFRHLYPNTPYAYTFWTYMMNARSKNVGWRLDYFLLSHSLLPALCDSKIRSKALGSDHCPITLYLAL

For `COCCN(CC(=O)Nc1cccc(C)c1C)C(=O)c1cc2c(s1)CCC2` [MLS002170765], the IC50 in assay [1] is over 57 µM; in assay [2], over 57 µM; in assay [3] (setting [6]) it was 17.8 µM; in assay [4] (setting [7]) it was 15 µM; in assay [4] (setting [8]), 18.2 µM; in assay [5], over 57 µM.

For the compound `CCCN(C(=O)c1cccc(-n2cccc2)c1)c1c(N)n(Cc2ccccc2)c(=O)[nH]c1=O` [MLS001098232], the IC50 is over 57 µM in assay [1]; over 57 µM in assay [2]; 2.8 µM in assay [3] (setting [9]); 6.7 µM in assay [4] (setting [7]); 6.5 µM in assay [4] (setting [8]); 20.4 µM in assay [5].

`CN(CC(=O)Nc1c(Cl)cccc1Cl)C(=O)c1cccc(-n2cccc2)c1` [MLS001079471]: the IC50 in assay [1] was over 57 µM; in assay [2], over 57 µM; in assay [3] (setting [9]), 2.5 µM; in assay [4] (setting [7]), 4.2 µM; in assay [4] (setting [8]), 11.5 µM; in assay [5], 10.2 µM.

On to `O=C(Nc1ccc2oc(-c3ccccc3F)nc2c1)c1ccc([N+](=O)[O-])o1` [MLS001194759], for which the IC50 in assay [1] is over 57 µM; in assay [2] it was 10.2 µM; in assay [3] (setting [9]), 2.5 µM; in assay [4] (setting [7]) it was 2.7 µM; in assay [4] (setting [8]), 3.2 µM; in assay [5] it was over 57 µM.

Consider `CCNc1nc(NCC)n2c(SCC(=O)Nc3ccccc3C(F)(F)F)nnc2n1` [MLS001234389], for which the IC50 in assay [1] was over 57 µM; in assay [2], over 57 µM; in assay [3] (setting [6]) it was 14.1 µM; in assay [4] (setting [7]) it was 21.2 µM; in assay [4] (setting [8]) it was 12.9 µM; in assay [5] it was over 57 µM.

Regarding `CC1=C(C(=O)OC(C)C)C(c2ccc(Cl)cc2)n2c(s/c(=C\c3ccc(OCC(=O)O)cc3)c2=O)=N1` (stereo not drawn) [MLS001178474], the IC50 in assay [1] was over 57 µM; in assay [2], 10.2 µM; in assay [3] (setting [9]), 1.4 µM; in assay [4] (setting [7]), 6.7 µM; in assay [4] (setting [8]), 5.1 µM; in assay [5], over 57 µM.

Consider `CSCC[C@H](NS(=O)(=O)c1ccc(C(C)=O)cc1)c1nnc2ccccn12` [MLS001158971], for which the IC50 in assay [1] is over 57 µM; in assay [2], over 57 µM; in assay [3] (setting [6]), 22.4 µM; in assay [4] (setting [7]), 21.2 µM; in assay [4] (setting [8]) it was 9.1 µM; in assay [5], over 57 µM.

Regarding `O=C(CSc1nc2sc3c(c2c(=O)n1-c1ccccc1)CCCC3)NN=Cc1ccccc1C(=O)O` [MLS001147809], the IC50 in assay [1] was over 57 µM; in assay [2] it was over 57 µM; in assay [3] (setting [6]) it was 12.6 µM; in assay [4] (setting [7]) it was 10.6 µM; in assay [4] (setting [8]), 14.5 µM; in assay [5], over 57 µM.

As to `COc1ccc(OCCOc2ccc(/C=C3\C(=N)N4N=C(C)SC4=NC3=O)cc2)cc1` [MLS001359901], the IC50 in assay [1] is over 57 µM; in assay [2], over 57 µM; in assay [3] (setting [6]) it was 10 µM; in assay [4] (setting [7]), 9.5 µM; in assay [4] (setting [8]), 5.8 µM; in assay [5], over 57 µM.

As to `Cc1cccc(NC(=O)CNC(=O)c2cccc(-n3cccc3)c2)c1C` [MLS001141795], the IC50 in assay [1] was over 57 µM; in assay [2], over 57 µM; in assay [3] (setting [9]) it was 1.1 µM; in assay [4] (setting [7]), 1.9 µM; in assay [4] (setting [8]), 6.5 µM; in assay [5] it was over 57 µM.

In the case of `COc1ccccc1N(CC(=O)NCc1ccco1)S(=O)(=O)c1ccc(C)cc1` [MLS001219746], the IC50 in assay [1] is over 57 µM; in assay [2] it was over 57 µM; in assay [3] (setting [9]), 8.9 µM; in assay [4] (setting [7]), 21.2 µM; in assay [4] (setting [8]), 16.2 µM; in assay [5], over 57 µM.

On to `Nc1c(C(=O)OCC(=O)Nc2cccc([N+](=O)[O-])c2)[nH]c(=O)[nH]c1=O` [MLS002171489], for which the IC50 in assay [1] is over 57 µM; in assay [2], over 57 µM; in assay [3] (setting [9]) it was 7.9 µM; in assay [4] (setting [7]) it was 8.4 µM; in assay [4] (setting [8]), 16.2 µM; in assay [5], over 57 µM.

For the compound `COc1ccc(NC(=O)c2cc(-c3ccco3)nc3ccccc23)cn1` [MLS002164354], the IC50 in assay [1] is 22.9 µM; in assay [2], over 57 µM; in assay [3] (setting [9]) it was 7.1 µM; in assay [4] (setting [7]), 11.9 µM; in assay [4] (setting [8]) it was 14.5 µM; in assay [5], 36.3 µM.

In the case of `Nc1c(/C=C2/C=CC(=O)C(O)=C2)c(=O)nc2sc(CC(=O)N3CCCCC3)nn12` [MLS001139223], the IC50 in assay [1] was over 57 µM; in assay [2], over 57 µM; in assay [3] (setting [9]), 2.5 µM; in assay [4] (setting [7]) it was 1.9 µM; in assay [4] (setting [8]), 2 µM; in assay [5], over 57 µM.

In the case of `C=CC1=C(C(=O)O)N2C(=O)[C@@H](NC(=O)/C(=N\OCC(=O)O)c3csc(N)n3)[C@H]2SC1` [MLS002222332], the IC50 in assay [1] was over 57 µM; in assay [2], over 57 µM; in assay [3] (setting [9]), 2.8 µM; in assay [4] (setting [7]), 11.9 µM; in assay [5], over 57 µM.

Consider `COc1ccc(Cl)cc1NC(=O)CCS(=O)(=O)c1ccc(Br)cc1` [MLS001202289], for which the IC50 in assay [1] was over 57 µM; in assay [2], 45.7 µM; in assay [3] (setting [6]) it was 12.6 µM; in assay [4] (setting [7]), 11.9 µM; in assay [4] (setting [8]) it was 45.7 µM; in assay [5], over 57 µM.

Regarding `O=C(COC(=O)c1ccccc1)Nc1ncc([N+](=O)[O-])s1` [MLS002171184], the IC50 in assay [1] was over 57 µM; in assay [2] it was 32.4 µM; in assay [3] (setting [9]), 1.6 µM; in assay [4] (setting [7]) it was 3.4 µM; in assay [4] (setting [8]) it was 11.5 µM; in assay [5], over 57 µM.

Turning to `CCOC(=O)C1=C(C)N=c2s/c(=C\c3ccc(OCC(=O)O)cc3)c(=O)n2C1c1ccc(Cl)cc1` (stereo not drawn) [MLS001178472], the IC50 in assay [1] was over 57 µM; in assay [2], over 57 µM; in assay [3] (setting [6]), 11.2 µM; in assay [4] (setting [7]), 10.6 µM; in assay [4] (setting [8]), 14.5 µM; in assay [5] it was over 57 µM.

In the case of `COCCN(C(=O)COC(=O)c1cc2c(s1)CCC2)c1c(N)n(Cc2ccccc2)c(=O)[nH]c1=O` [MLS001080179], the IC50 in assay [1] was over 57 µM; in assay [2] it was over 57 µM; in assay [3] (setting [9]), 0.3 µM; in assay [4] (setting [7]), 0.8 µM; in assay [4] (setting [8]) it was 1.1 µM; in assay [5], over 57 µM.

For `COc1ccc(S(=O)(=O)NCCC(=O)NC2CCCCC2C)cc1[N+](=O)[O-]` (stereo not drawn) [MLS002251710], the IC50 in assay [1] was over 57 µM; in assay [2] it was over 57 µM; in assay [3] (setting [6]) it was 11.2 µM; in assay [4] (setting [7]) it was 26.7 µM; in assay [4] (setting [8]) it was 16.2 µM; in assay [5], 20.4 µM.

`Cc1ccc(NC(=O)CN(C)C(=O)c2cc(-c3ccco3)nc3ccccc23)cc1` [MLS001099510]: the IC50 is over 57 µM in assay [1]; over 57 µM in assay [2]; 3.5 µM in assay [3] (setting [9]); 5.3 µM in assay [4] (setting [7]); 22.9 µM in assay [4] (setting [8]); over 57 µM in assay [5].

For the compound `Cc1ccc(C)c(NC(=O)CN(C)C(=O)c2cccc(-n3cccc3)c2)c1` [MLS001161412], the IC50 in assay [1] is 16.2 µM; in assay [2] it was over 57 µM; in assay [3] (setting [9]), 2.8 µM; in assay [4] (setting [7]), 3 µM; in assay [4] (setting [8]) it was 5.8 µM; in assay [5], 12.9 µM.

`Nc1nc(=S)c2ncn(C3OC(CO)C(O)C3O)c2[nH]1` (stereo not drawn) [MLS000738229]: the IC50 in assay [1] was over 57 µM; in assay [2] it was 28.9 µM; in assay [3] (setting [9]) it was 2.5 µM; in assay [4] (setting [7]), 13.4 µM; in assay [4] (setting [8]) it was 3.6 µM; in assay [5], over 57 µM.

Consider `CCNc1nc(NCC)n2c(SCC(=O)Nc3cccc(F)c3)nnc2n1` [MLS001234358], for which the IC50 is 36.3 µM in assay [1]; over 57 µM in assay [2]; 11.2 µM in assay [3] (setting [6]); 5 µM in assay [3] (setting [9]); 11.9 µM in assay [4] (setting [7]); 11.5 µM in assay [4] (setting [8]). Moreover, the IC50 in assay [5] came out at 18.2 µM.

As to `Cc1coc2c(C)c3oc(=O)c(CCC(=O)N[C@@H](C)C(=O)N[C@@H](Cc4ccccc4)C(=O)O)c(C)c3cc12` [MLS001140219], the IC50 in assay [1] is over 57 µM; in assay [2] it was over 57 µM; in assay [3] (setting [6]) it was 20 µM; in assay [4] (setting [7]), 13.4 µM; in assay [4] (setting [8]) it was 18.2 µM; in assay [5], over 57 µM.

Regarding `Cc1ccc(C)c(S(=O)(=O)Nc2ccc3oc(C)c(C(=O)O)c3c2)c1` [MLS000948181], the IC50 in assay [1] is over 57 µM; in assay [2] it was over 57 µM; in assay [3] (setting [9]) it was 2.8 µM; in assay [4] (setting [7]), 13.4 µM; in assay [4] (setting [8]) it was 20.4 µM; in assay [5] it was over 57 µM.

On to `CCNc1nc(NCC)n2c(SCC(=O)Nc3ccc(OC(F)F)cc3)nnc2n1` [MLS001234379], for which the IC50 in assay [1] was over 57 µM; in assay [2], over 57 µM; in assay [3] (setting [9]) it was 7.1 µM; in assay [4] (setting [7]), 10.6 µM; in assay [4] (setting [8]) it was 11.5 µM; in assay [5], over 57 µM.

For the compound `CC(=O)c1cccc(OCC(=O)N(C)CC(=O)NCc2ccco2)c1` [MLS002251323], the IC50 in assay [1] was over 57 µM; in assay [2], over 57 µM; in assay [3] (setting [9]), 4 µM; in assay [4] (setting [7]) it was 9.5 µM; in assay [4] (setting [8]) it was 9.1 µM; in assay [5], over 57 µM.

Consider `CC(C)(C)OC(=O)C[C@@H]1C/C=C\C[C@H](CC(=O)NCCO)C(=O)N2CCC[C@H]2COC1=O` [MLS002320191], for which the IC50 was over 57 µM in assay [1]; over 57 µM in assay [2]; 7.9 µM in assay [3] (setting [9]); 6.7 µM in assay [4] (setting [7]); 20.4 µM in assay [4] (setting [8]); over 57 µM in assay [5].

The record behind these values is article PMC3479139, “Diverse Small Molecule Inhibitors of Human Apurinic/Apyrimidinic Endonuclease APE1 Identified from a Screen of a Large Public Collection” (PLoS ONE, 2012).
